Here are results for two compounds from the supplement of paper PMC11579375.

The structures appear in SMILES notation.

Holding throughout (assay): area under the viability dose-response curve (AUC) (AUC (arbitrary units, max 500 = no viability loss)); higher = less sensitive (higher viability)
Common to all, as to conditions: exposure time: 120 h; concentration range: 0.1 nM - 10 µM, 6 doses

One assay has as its system 3E (embryonal-type hepatoblastoma organoid). How it is done:
(§1)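 Patient-derived hepatoblastoma tumor organoids (about 50 organoids per well, 384-well plates, medium with 5% BME) were treated with the PMC pediatric cancer drug library. Each drug was tested in duplicate at 6 concentrations (0.1 nM to 10 µM, 10-fold steps).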

In the next assay the test system is 96F1 (fetal-I hepatoblastoma organoid with intermediate liver markers). How it is done: as §1
Another assay relates to 8F1 (fetal-I hepatoblastoma organoid with intermediate liver markers). On the procedure: as §1
In the next assay the test system is 17E (embryonal-type hepatoblastoma organoid). How it is done:
as §1

The test system of another assay is 13F2 (fetal-II hepatoblastoma organoid with high liver markers). How it is done:
as §1

For the next assay, the system named is 10F2 (fetal-II hepatoblastoma organoid with high liver markers). How it is done:
as §1

The subject of the next assay is 17F1 (fetal-I hepatoblastoma organoid with intermediate liver markers). On the procedure:
as §1

For the next assay, the system named is 27F1 (fetal-I hepatoblastoma organoid with intermediate liver markers). On the procedure:
as §1

The test system of another assay is 22E (embryonal-type hepatoblastoma organoid). How it is done: as §1
The test system of another assay is 13E (embryonal-type hepatoblastoma organoid). How it is done: as §1
The test system of a further assay is 135F2 (fetal-II hepatoblastoma organoid with high liver markers). On the procedure: as §1

For the compound `COc1ncc(-c2nc3c(n2C(C)C)[C@H](c2ccc(Cl)cc2)N(c2cc(Cl)cn(C)c2=O)C3=O)c(OC)n1` [Siremadlin], the “area under the viability dose-response curve” value (from here on “area”) stood at 306 in the assay with 3E; 385 in the assay with 96F1; 373 in the assay with 8F1; 318 in the assay with 17E; 246 in the assay with 13F2; 200 in the assay with 10F2. The “area” value with 17F1 stood at 395; with 27F1, 359; in the assay on 22E it was 414; in the assay with 13E, 383; in the assay on 135F2, 328.
In the case of `O=C(NOC[C@H](O)CO)c1ccc(F)c(F)c1Nc1ccc(I)cc1F`, the “area” value with 3E is 488; in the assay on 96F1, 461; in the assay with 8F1, greater than 500; in the assay on 17E it was 471; in the assay with 13F2, 325; in the assay with 10F2, 262. In addition, the “area” value came out at 480 in the assay on 17F1; 447 with 27F1; 481 in the assay on 22E; 490 in the assay with 13E; 376 with 135F2.
